Laboratory results as given in patent US20080188560A1, “Cosmetic Compositions and Methods For Sensory Cooling” (priority 2004, published 2008).

Assay: Cooling effect/cooling potential: heat of fusion by Differential Scanning Calorimeter
Format: physicochemical
Conditions: Pyris 1 DSC, sample cooled to −10° C., heated 10° C. per minute up to 50° C., area under the peak
Procedure: Four samples of the composition are prepared with 10%, 20% and 40% of the stearyl heptanoate in three samples and 40% Marrix (C12-C15 Alkyl Furmurate) in a fourth sample. Each sample is first weighed and subsequently cooled to −10° C. A Calorimeter (Pyris 1 Differential Scanning Calorimeter from Perkin Elmer) is used to apply heat to each sample at one minute increments, 10° C. per minute up to 50° C. The Calorimeter measures the heat of the sample at each increment. The resulting readings of heat are plotted against time for each sample. The Calorimeter measures the area under the peak on the plot to calculate the Heat of fusion (J/g) for each sample. The heat of fusion for the sample is the energy required to melt the sample from a solid form to a liquid form. The heat of fusion for the sample identifies the amount of energy the sample can absorb. Therefore, to correlate to the cooling on the skin, the higher the heat of fusion of a sample/material, the more heat the sample/material will absorb from the skin upon application to correspondingly create a cooling sensation on the skin.

- (ΔH) Heat of fusion: 174.3 J/g
- (ΔH) Heat of fusion (listed as active alone): 174.3 J/g
- (ΔH) Heat of fusion (listed as stearyl heptanoate): 74.5 J/g
Compound: CCCCCCCCCCCCCCCCCCOC(=O)CCCCCC [Active alone, Stearyl Heptanoate]
